# According to ChEMBL document CHEMBL1133710 (J Med Chem, 2000):
# Key:
# [1] = target: T1, D(2) dopamine receptor (Bos taurus, UniProt P20288); assay: Binding Affinity was tested on high Affinity Site of Bovine dopamine receptor D2. Tested for ability to displace the radioligand [3H]pramipexole at the binding site.
# [2] = target: T2, D(2) dopamine receptor (Homo sapiens, UniProt P14416); assay: Binding Affinity was determined in the presence of 100 micro M Gpp(NH)p for decoupling of the ternary complex of Compound to Dopamine receptor D2S
# [3] = target: T3, D(3) dopamine receptor (Homo sapiens, UniProt P35462)
# [4] = target: T4, D(4) dopamine receptor (Homo sapiens, UniProt P21917); assay: Binding Affinity was tested on low Affinity Site of Dopamine receptor D4.4
# T4 sequence (P21917 whole entry): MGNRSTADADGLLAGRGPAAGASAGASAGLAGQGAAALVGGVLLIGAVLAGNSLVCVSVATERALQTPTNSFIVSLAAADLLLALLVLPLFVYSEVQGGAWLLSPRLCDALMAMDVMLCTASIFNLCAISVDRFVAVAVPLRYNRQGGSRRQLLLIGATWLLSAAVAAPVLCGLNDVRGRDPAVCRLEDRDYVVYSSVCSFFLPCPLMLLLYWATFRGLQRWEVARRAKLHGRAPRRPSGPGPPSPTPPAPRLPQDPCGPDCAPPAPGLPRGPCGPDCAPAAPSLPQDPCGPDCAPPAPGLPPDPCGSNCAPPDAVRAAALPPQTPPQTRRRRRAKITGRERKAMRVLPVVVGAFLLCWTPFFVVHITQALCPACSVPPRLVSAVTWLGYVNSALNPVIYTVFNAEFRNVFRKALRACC
# [5] = target: T2, D(2) dopamine receptor
# [6] = target: T2, D(2) dopamine receptor; assay: Binding Affinity was determined in the presence of 100 micro M Gpp(NH)p for decoupling of the ternary complex of Compound to Dopamine receptor D2L
# [7] = target: T3, D(3) dopamine receptor; assay: Dissociation constant of compound on one-site model Dopamine receptor D3
# [8] = target: T2, D(2) dopamine receptor; assay: Dissociation constant of compound on one-site model Dopamine receptor D2L
# [9] = target: T3, D(3) dopamine receptor; assay: Binding Affinity was tested on low Affinity Site of Dopamine receptor D3
# [10] = target: T1, D(2) dopamine receptor; assay: Binding Affinity was tested on high Affinity Site of Bovine Dopamine D2 Receptor. Tested for ability to displace the radioligand [3H]-Spiperone
# [11] = target: T1, D(2) dopamine receptor; assay: Dissociation constant of compound on one-site model Bovine dopamine receptor D2. Tested for ability to displace the radioligand [3H]spiperone at the binding site.
# [12] = target: T1, D(2) dopamine receptor; assay: Binding Affinity was tested on low Affinity Site of Bovine dopamine receptor D2. Tested for ability to displace the radioligand [3H]spiperone at the binding site.
# [13] = target: T2, D(2) dopamine receptor; remark: listed apart in the source
# [14] = target: T3, D(3) dopamine receptor; assay: Binding Affinity was determined in the presence of 100 micro M Gpp(NH)p for decoupling of the ternary complex of Compound to Dopamine receptor D3
# [15] = target: T4, D(4) dopamine receptor; assay: Binding Affinity was tested on the high affinity site of Dopamine receptor D4.4
# [16] = target: T2, D(2) dopamine receptor; assay: Binding Affinity was tested on low Affinity Site of Dopamine receptor D2L
# [17] = target: T5, D(1A) dopamine receptor (Bos taurus, UniProt Q95136); assay: Binding Affinity was tested on High Affinity Site of Bovine dopamine receptor D1. Tested for ability to displace the radioligand [3H]-SCH- 23390
# [18] = target: T2, D(2) dopamine receptor; assay: Dissociation constant of compound on one-site model Dopamine receptor D2S
# [19] = target: T1, D(2) dopamine receptor; assay: Binding Affinity was determined for decoupling of the ternary complex of Compound to Bovine dopamine receptor D2. Tested for ability to displace the radioligand [3H]spiperone at the binding site.
# [20] = target: T2, D(2) dopamine receptor; assay: Binding Affinity of Compound of Dopamine receptor D2S
# [21] = target: T4, D(4) dopamine receptor; assay: Dissociation constant of compound on one-site model Dopamine receptor D4.4
# [22] = target: T5, D(1A) dopamine receptor; assay: Binding Affinity was tested on High Affinity Site of Bovine Dopamine D1 Receptor. Tested for ability to displace the radioligand [3H]-SCH- 23390
# [23] = target: T2, D(2) dopamine receptor; remark: listed apart in the source
# [24] = target: T5, D(1A) dopamine receptor; assay: Binding Affinity was tested for its ability to displace the radioligand [3H]-SCH- 23390 from High Affinity Site of Bovine dopamine receptor D1
# [25] = target: T2, D(2) dopamine receptor; remark: listed apart in the source
# [26] = target: T3, D(3) dopamine receptor; remark: listed apart in the source
# [27] = target: T3, D(3) dopamine receptor; assay: Dissociation constant of compound on one-site model Human Dopamine receptor D3
# [28] = target: T2, D(2) dopamine receptor; assay: Binding Affinity was tested on High Affinity Site of Dopamine receptor D2S
# [29] = target: T2, D(2) dopamine receptor; assay: Binding Affinity was tested on High Affinity Site of Dopamine receptor D2L
# T1 sequence (P20288 whole entry): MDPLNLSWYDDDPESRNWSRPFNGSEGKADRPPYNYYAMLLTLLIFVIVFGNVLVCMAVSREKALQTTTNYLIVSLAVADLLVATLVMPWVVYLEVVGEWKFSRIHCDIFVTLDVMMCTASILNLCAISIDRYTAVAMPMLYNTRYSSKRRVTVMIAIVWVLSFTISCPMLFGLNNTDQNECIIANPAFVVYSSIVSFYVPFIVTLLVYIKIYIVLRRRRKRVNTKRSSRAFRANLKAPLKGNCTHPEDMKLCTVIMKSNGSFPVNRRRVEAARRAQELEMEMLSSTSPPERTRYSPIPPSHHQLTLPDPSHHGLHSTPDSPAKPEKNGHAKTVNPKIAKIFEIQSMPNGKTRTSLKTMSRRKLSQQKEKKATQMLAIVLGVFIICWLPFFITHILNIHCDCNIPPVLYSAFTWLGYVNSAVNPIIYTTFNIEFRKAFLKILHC
# T2 sequence (P14416 whole entry): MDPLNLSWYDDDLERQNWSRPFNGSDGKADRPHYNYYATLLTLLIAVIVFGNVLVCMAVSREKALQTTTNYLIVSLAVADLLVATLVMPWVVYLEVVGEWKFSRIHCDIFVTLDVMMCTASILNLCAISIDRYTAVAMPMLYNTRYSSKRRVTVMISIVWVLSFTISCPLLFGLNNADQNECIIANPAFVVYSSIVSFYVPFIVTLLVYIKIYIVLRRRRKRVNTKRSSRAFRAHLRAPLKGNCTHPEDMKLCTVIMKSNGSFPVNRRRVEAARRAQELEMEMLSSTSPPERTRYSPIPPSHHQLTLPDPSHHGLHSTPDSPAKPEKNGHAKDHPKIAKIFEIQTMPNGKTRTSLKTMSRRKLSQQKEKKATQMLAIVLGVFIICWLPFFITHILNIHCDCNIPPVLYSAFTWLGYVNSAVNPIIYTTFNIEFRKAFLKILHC
# T5 sequence (Q95136 whole entry): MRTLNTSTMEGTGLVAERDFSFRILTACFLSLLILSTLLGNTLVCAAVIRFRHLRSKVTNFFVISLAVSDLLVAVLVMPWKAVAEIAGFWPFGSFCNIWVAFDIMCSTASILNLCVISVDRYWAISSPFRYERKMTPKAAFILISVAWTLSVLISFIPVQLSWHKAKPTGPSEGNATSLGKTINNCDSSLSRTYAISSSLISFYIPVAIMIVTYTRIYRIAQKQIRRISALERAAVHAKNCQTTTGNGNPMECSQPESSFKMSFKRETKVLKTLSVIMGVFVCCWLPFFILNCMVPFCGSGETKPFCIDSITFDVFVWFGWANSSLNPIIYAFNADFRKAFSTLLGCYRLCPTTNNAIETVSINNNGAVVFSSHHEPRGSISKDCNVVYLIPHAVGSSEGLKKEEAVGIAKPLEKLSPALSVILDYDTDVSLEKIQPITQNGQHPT
# T3 sequence (P35462 whole entry): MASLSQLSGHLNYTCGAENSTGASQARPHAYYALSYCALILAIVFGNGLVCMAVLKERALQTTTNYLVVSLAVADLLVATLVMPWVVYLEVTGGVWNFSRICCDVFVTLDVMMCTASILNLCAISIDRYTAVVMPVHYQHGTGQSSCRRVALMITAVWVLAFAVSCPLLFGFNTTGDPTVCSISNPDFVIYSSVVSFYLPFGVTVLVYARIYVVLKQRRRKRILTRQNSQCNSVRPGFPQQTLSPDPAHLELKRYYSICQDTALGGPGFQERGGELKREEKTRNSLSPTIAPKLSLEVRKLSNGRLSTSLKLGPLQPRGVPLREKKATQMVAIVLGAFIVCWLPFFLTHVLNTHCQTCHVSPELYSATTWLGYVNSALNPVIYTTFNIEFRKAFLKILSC
Compound,Ki [3] [nM],Ki [5] [µM],Ki [13] [µM],Ki [15] [nM],Ki [17] [µM],other results
CCCN(CCC)C1CC=C(C#C[Si](C)(C)C)CC1 (stereo unspecified),47,0.97,0.16,160,> 20,Ki [1]: 30 nM; Ki [2]: > 20 µM; Ki [4]: 3800 nM; Ki [6]: > 20 µM; Ki [7]: 820 nM; Ki [8]: > 20000 nM; Ki [9]: 1600 nM; Ki [10]: 150 nM; Ki [11]: 1600 nM; Ki [12]: 7.5 µM; Ki [14]: 1900 nM; Ki [16]: > 20 µM; Ki [18]: > 20000 nM; Ki [19]: 12 µM; Ki [20]: > 20 µM; Ki [21]: 640 nM
C#CC(C#C)=C1CCC(N(CCC)CCC)CC1 (stereo unspecified),4400,> 20,12,3900,–,Ki [22]: 16 µM
CCCN(CCC)C1CC=C(C#N)CC1 (stereo unspecified),13000,> 20,> 20,> 20000,> 20,–
CCCN(CCC)C1CCC(=CC#N)CC1 (stereo unspecified),–,–,–,> 20000,–,Ki [23]: > 20 µM; Ki [24]: > 20 µM; Ki [25]: > 20 µM; Ki [26]: 13 µM
CCCN(CCC)C1CCC(=C(C#C[Si](C)(C)C)C#C[Si](C)(C)C)CC1 (stereo unspecified),2800,13,11,1900,–,Ki [22]: 3.9 µM
C#CC1=CCC(N(CCC)CCC)CC1 (stereo unspecified),5.2,0.25,0.27,22,–,Ki [27]: 350 nM; Ki [2]: 17 µM; Ki [4]: 380 nM; Ki [6]: 19 µM; Ki [8]: 2800 nM; Ki [9]: 590 nM; Ki [14]: 720 nM; Ki [16]: 14 µM; Ki [18]: 2900 nM; Ki [20]: 12 µM; Ki [21]: 170 nM
CCCN(CCC)C1CCC(=C(C#N)C#N)CC1 (stereo unspecified),1600,15,> 20,> 20000,> 20,–
CCCN(CCC)C1CC=C(C#Cc2ccccc2)CC1 (stereo unspecified),3500,–,–,16000,> 20,Ki [28]: 15 µM; Ki [29]: 15 µM
CCCN(CCC)C1CCC(=C(C#Cc2ccccc2)C#Cc2ccccc2)CC1 (stereo unspecified),1800,7.3,5.2,1400,2.2,–
